In paper PMC7318222, “A Family of Water‐Immiscible, Dipolar Aprotic, Diamide Solvents from Succinic Acid” (Chemsuschem, 2020):

Key:
[1] = Octanol/water partition coefficient (Log P(o/w)), shake flask method; type: physicochemical; conditions: this work
Text: The succindiamides have large, positive Log P (o/w) values, meaning they favor the organic layer in an octanol/water biphasic system and are therefore more lipophilic.37 In contrast, the traditional dipolar aprotics have large, negative Log P (o/w) values so are more hydrophilic. […] Importantly, none of the succindiamide solvents have a Log P (o/w) above 4, the value that has been set as a threshold for bioaccumulation in the environment. […]
Equation S2. π = ν [DMSO]−ν [cyclohexane] […]
Determination of octanol/water partition coefficient (Log P(o/w))
Determination of the log P(o/w) was done by the shake flask method. 1.5 mL each of octanol and water were mixed in a 4 mL vial. 30 μL of the test solute and 10 μL of an internal standard (diglyme) were added and the mixture was shaken for 30 seconds and allowed to stand overnight. Samples (1 mL) were taken from both the aqueous and organic layers and added to 1.5 mL GC vials for GC analysis.
Log P(o/w) was obtained using Equation S5.

[2] = target: T1, TRβ (Homo sapiens, UniProt P10828); test: TRβ CALUX reporter gene assay; type: cell-based; parameters: key: –: no effect observed up to the highest test concentration; conditions: PC10, 24 h exposure
T1 construct: expression construct for the full-length human receptor under investigation; expressed in transfected cells; host or cells: human U2-OS cells (ATCC HTB-96), stably transfected
T1 sequence (P10828 1-461): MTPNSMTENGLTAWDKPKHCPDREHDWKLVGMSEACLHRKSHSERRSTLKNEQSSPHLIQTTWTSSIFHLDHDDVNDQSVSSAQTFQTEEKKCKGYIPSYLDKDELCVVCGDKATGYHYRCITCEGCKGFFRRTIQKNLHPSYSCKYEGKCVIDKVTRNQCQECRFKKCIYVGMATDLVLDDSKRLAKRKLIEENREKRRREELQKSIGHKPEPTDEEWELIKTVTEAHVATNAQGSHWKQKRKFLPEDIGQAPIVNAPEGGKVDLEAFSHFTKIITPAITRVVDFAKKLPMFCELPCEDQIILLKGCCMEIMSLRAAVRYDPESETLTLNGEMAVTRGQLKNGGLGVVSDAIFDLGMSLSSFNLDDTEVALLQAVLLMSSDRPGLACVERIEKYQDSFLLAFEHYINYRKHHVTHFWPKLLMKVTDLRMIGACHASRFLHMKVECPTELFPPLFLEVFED
Text: (§1) 2-methylimidazole 99.0%, zinc(II) nitrate hexahydrate ≥99.0%, para-cymene 99.0%, 1,4-dioxane 99.8% (anhydrous), 4-nitroaniline ≥99.0%, 1-octanol ≥99.0%, diglyme ≥99.0%, DMSO-d6 (99.8% D) and chloroform-d (99.8% D) were purchased from Sigma-Aldrich. Toluene ≥99.0%, hexane ≥99.5%, DCM ≥99.5%, chloroform ≥99.5%, DMSO ≥99.0% were purchased from VWR. N,N-diethyl-4-nitroaniline ≥98.0% was purchased from Alfa Aeser. Cyrene was supplied by Circa group. N-butylpyrrolidinone was supplied by Eastman chemicals. N,N-dimethylformamide 99.9% and N,N-dimethylacetamide 99.9% were purchased from Fischer. The flakes of Ultrason® E3020 P Polyarylethersulfone of 55,000 Da were obtained from INGE.BASF, Germany. The CALUX cell lines have been described previously.[1] They are based on human U2-OS cells (ATCC, HTB-96) stably transfected with an expression construct for the full-length human receptor under investigation, and a reporter construct consisting of multimerized responsive elements for the cognate receptor coupled to a minimal promoter element (TATA) and a luciferase gene. Cells were maintained as described previously,[2] using cell culture media and supplements from Fisher Scientific as described in the experimental procedures section. […]
(§2) In vitro reporter gene assays
(§3) The automated CALUX assays were carried out similarly as described earlier,[12] with some adaptations. In brief, the assay was performed in CO2 independent medium (Fisher Scientific, […]
(§4) supplement (Fisher Scientific, 11574466), 10 U/mL penicillin and 10 µg/mL streptomycin. A cell suspension in assay medium was made of 1 × 10^5cells/mL, and white 384-wells plates were seeded with 30 µl cell suspension/well. After 24 h, exposure medium was prepared. A dilution series in 0.5log unit increments of each test compound (in DMSO) was added to a 96-wells plate containing assay medium (2% v/v). Of this exposure mixture, 30 µl was added to the assay plates containing the CALUX cells, resulting in a final DMSO concentration of 1%. Additionally, DMSO blanks and a full dose response curve of the relevant reference compound were included on each plate. All samples were tested in triplicate. The preparation of the compound dilution series as well as the exposure of the cells were performed on a Hamilton StarLET liquid handling robot coupled to a Cytomat incubator.
(§5) Directly after exposure, plates were sealed with non-breathing plate seals (Plate sealer, easy seal transparent; Greiner-Bio-One, 676001). After 24 h the exposure medium was removed using an EL406 washer-dispenser (BioTek) and 10 µl/well triton lysisbuffer was added by the EL406.
(§6) Subsequently, the luciferase signal was measured in a luminometer (InfinitePro coupled to a Connect Stacker, both TECAN). In order to be able to detect receptor antagonism, several assays were also performed in antagonistic mode. […]
(§7) The luminometer data was analysed as follows; the average of the triplicate wells was determined, and the average blank (DMSO) value was subtracted. […] For antagonist- and cytotoxicity experiments, PC20 values were determined instead, which was defined as the concentration where the test compound causes a 20% decrease in the basal signal, which was […]
(§8) curve, the signal induction above background (DMSO) was determined, and the concentration where the compound elicited a 1.5-fold increase above background was used as LEC.

[3] = target: T1, TRβ; test: TRβ-anti CALUX reporter gene assay (antagonistic mode); type: cell-based; parameters: key: –: no effect observed up to the highest test concentration; conditions: PC20, 24 h exposure
Text: as §1, §2, §3, §4, §5, §6, §7, §8

[4] = system: TCF; test: TCF CALUX assay (Wnt signaling); type: cell-based, human; parameters: key: –: no effect observed up to the highest test concentration; conditions: cell signaling pathway assay, 24 h exposure
Text: Six of the CALUX assays (TCF through p53) detect activation of several cellular signaling pathways, which are indicative of general stress and acute toxicity, but also a range of more specific types of toxicity, including reproductive toxicity. […]
as §1, §2, §3, §4, §5
Subsequently, the luciferase signal was measured in a luminometer (InfinitePro coupled to a Connect Stacker, both TECAN). In order to be able to detect receptor antagonism, several assays were also performed in antagonistic mode. The assay procedure was as described above, with the only exception that the EC50 concentration of the reference agonist was present during the exposure.
The luminometer data was analysed as follows; the average of the triplicate wells was determined, and the average blank (DMSO) value was subtracted. […] For antagonist- and cytotoxicity experiments, PC20 values were determined instead, which was defined […]

SMILES | logP [1] | LEC TRβ [2] | LEC TRβ‐anti [3] | LEC TCF [4]
CCCCN(CC)C(=O)CCC(=O)N(CC)CCCC [EBSA, N,N′‐diethyl‐N,N′‐dibutylsuccindiamide] | 2.72 | – | – | –
CCCCN(C)C(=O)CCC(=O)N(C)CCCC [MBSA, N,N′‐dimethyl‐N,N′‐dibutylsuccindiamide] | 1.65 | – | – | –

Second part, led by results:

logP [1] | LEC TRβ [2] | LEC TRβ‐anti [3] | SMILES | LEC TCF [4]
0.99 | – | – | CCCCN1CCCC1=O [NBP, N‐Butylpyrrolidinone, reference compound] | –
3.77 | – | – | CCCCN(CCCC)C(=O)CCC(=O)N(CCCC)CCCC [TBSA, N,N,N′,N′‐tetrabutylsuccindiamide] | –
 | – | – | CN1CCCC1=O [NMP, N‐methyl‐2‐pyrrolidone, reference compound] | −2.1 Log M
